Literature values in paper PMC8583936, “Machine Learning Assisted Approach for Finding Novel High Activity Agonists of Human Ectopic Olfactory Receptors” (International Journal of Molecular Sciences, 2021).
Structures can show the parent of a compound that is named as a salt. Where two headings read alike, the source gives them in different places.

Key:
[1] = biological target: T1, OR1A1 (Homo sapiens, UniProt Q9P1Q5); conditions: cited from earlier work
T1 sequence (Q9P1Q5 1-309): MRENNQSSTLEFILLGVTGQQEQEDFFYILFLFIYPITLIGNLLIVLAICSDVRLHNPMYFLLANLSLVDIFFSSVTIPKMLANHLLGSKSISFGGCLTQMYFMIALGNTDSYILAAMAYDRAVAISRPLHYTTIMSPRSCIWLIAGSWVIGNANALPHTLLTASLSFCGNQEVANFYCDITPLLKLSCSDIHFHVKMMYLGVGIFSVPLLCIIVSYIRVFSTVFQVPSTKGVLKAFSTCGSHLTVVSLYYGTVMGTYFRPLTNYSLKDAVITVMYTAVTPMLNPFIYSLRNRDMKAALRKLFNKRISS

[2] = biological target: T2, OR2W1 (Homo sapiens, UniProt Q9Y3N9); conditions: cited from earlier work
T2 sequence (Q9Y3N9 1-320): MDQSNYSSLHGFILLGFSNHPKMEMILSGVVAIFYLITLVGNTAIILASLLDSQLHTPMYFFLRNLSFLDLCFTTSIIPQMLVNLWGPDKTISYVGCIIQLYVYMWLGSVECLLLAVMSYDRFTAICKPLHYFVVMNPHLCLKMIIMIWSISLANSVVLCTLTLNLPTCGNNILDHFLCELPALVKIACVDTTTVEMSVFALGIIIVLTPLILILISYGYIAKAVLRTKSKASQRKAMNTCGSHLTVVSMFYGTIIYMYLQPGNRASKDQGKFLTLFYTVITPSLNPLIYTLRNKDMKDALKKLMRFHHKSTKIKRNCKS

[3] = Table S1, ref Supplement references [1]-[9] as printed after each odorant name
[4] = Table S2, ref Supplement references [2]-[12] as printed after each odorant name

Structure (SMILES)	Class (agonist / non-agonist / conflicting info.) for OR1A1 [1, 3]	Class (agonist / non-agonist / antagonist / conflicting info.) for OR2W1 [2, 4]	Class (agonist / non-agonist / conflicting info.) for OR1A1 [1]	Class (agonist / non-agonist / antagonist / conflicting info.) for OR2W1 [2]
SCCc1ccccc1 [2-phenylethanethiol]	Agonist	Agonist	–	–
OCCc1ccccc1 [2-phenylethanol]	Non-agonist	Non-agonist	–	–
CCC(=O)C1=NCCC1 [2-propionylpyrroline]	Non-agonist	Non-agonist	–	–
CCCCCCCCC=CC=O [2-undecenal]	Non-agonist	Non-agonist	–	–
CCC(=O)C(=O)CC [3,4-hexanedione]	–	–	Non-agonist	Agonist
CC/C=C\CCOC(C)=O [3-Hexenyl acetate, (3Z)-]	Non-agonist	Non-agonist	–	–
CCC(S)C(C)=O (stereo not drawn) [3-Mercapto-2-pentanone]	Non-agonist	Non-agonist	–	–
CC(C)(S)CCOC=O [3-Mercapto-3-methylbutyl formate]	Non-agonist	Non-agonist	–	–
CCCC(S)CCOC(C)=O (stereo not drawn) [3-Mercaptohexyl acetate]	Agonist	Agonist	–	–
CC(C)CCO [3-Methyl-1-butanol]	Non-agonist	Non-agonist	–	–
Cc1c[nH]c2ccccc12 [3-Methyl-1H-indole]	Non-agonist	Non-agonist	–	–
CCCCCC(=O)C(C)C(C)=O (stereo not drawn) [3-Methyl-2,4-nonanedione]	Agonist	Non-agonist	–	–
CCCC(=O)C(C)CC (stereo not drawn) [3-Methylheptan-4-one]	Non-agonist	Non-agonist	–	–
O=C(O)CCc1ccccc1 [3-Phenyl propionic acid]	–	–	Non-agonist	Non-agonist
CCCC(S)CCO (stereo not drawn) [3-Sulfanylhexan-1-ol]	Non-agonist	Non-agonist	–	–
CCc1cccc(O)c1 [3-ethylphenol]	Non-agonist	Non-agonist	–	–
CCCCC(=O)CC [3-heptanone]	Agonist	Agonist	–	–
CC/C=C\CC=O [3-hexenal, (3z)-]	Non-agonist	Non-agonist	–	–
Cc1cccc(O)c1 [3-methylphenol]	–	–	Non-agonist	Non-agonist
CCCCCC(=O)CC [3-octanone]	Agonist	Agonist	–	–
CCC(=O)OCCCc1ccccc1 [3-phenyl propyl propionate]	–	–	Agonist	Agonist
CCC(C)c1nccnc1OC (stereo not drawn) [3-secbutyl-2-methoxypyrazine]	Non-agonist	Non-agonist	–	–
CCCCC(CC)CCC(=O)O (stereo not drawn) [4-Ethyloctanoic acid]	Non-agonist	Non-agonist	–	–

Structure (SMILES)	Class (agonist / non-agonist / conflicting info.) for OR1A1 [1, 3]	Class (agonist / non-agonist / antagonist / conflicting info.) for OR2W1 [2, 4]	Class (agonist / non-agonist / conflicting info.) for OR1A1 [1]	Class (agonist / non-agonist / antagonist / conflicting info.) for OR2W1 [2]
CC(=O)CC(C)(C)S [4-Mercapto-4-methyl-2-pentanone]	Non-agonist	Non-agonist	–	–
COC1=C(C)OC(C)C1=O (stereo not drawn) [4-Methoxy-2,5-dimethyl-3(2H)-furanone]	Non-agonist	Non-agonist	–	–
COCCC(C)(C)S [4-Methoxy-2-methyl-2-butanethiol]	Non-agonist	Non-agonist	–	–
CC(=O)c1ccc(C)cc1 [4-Methyl acetophenone]	Non-agonist	Agonist	–	–
CCCCC(C)CCC(=O)O (stereo not drawn) [4-Methyloctanoic acid]	Non-agonist	Non-agonist	–	–
O=C1CCOc2ccccc21 [4-chromanone]	Agonist	Agonist	–	–
C=Cc1ccc(O)cc1 [4-ethenylphenol]	Non-agonist	Non-agonist	–	–
CCc1ccc(O)cc1 [4-ethylphenol]	Non-agonist	Non-agonist	–	–
CC/C=C\CCC=O [4-heptenal, (4z)-]	Non-agonist	Non-agonist	–	–
O=c1cc(O)c2ccccc2o1 [4-hydroxycoumarin]	–	–	Non-agonist	Non-agonist
Cc1ccc(O)cc1 [4-methylphenol]	Non-agonist	Non-agonist	–	–
CCCCC1OC(=O)CC1C (stereo not drawn) [5-Butyl-4-methyloxolan-2-one]	Non-agonist	Non-agonist	–	–
CCC1OC(=O)C(O)=C1C (stereo not drawn) [5-Ethyl-3-hydroxy-4-methylfuran-2(5H)-one]	Non-agonist	Non-agonist	–	–
CCCCCCC1CCC(=O)O1 (stereo not drawn) [5-Hexyloxolan-2-one]	Non-agonist	Non-agonist	–	–
CCCCCCCCC1CCC(=O)O1 (stereo not drawn) [5-Octyloxolan-2-one]	Non-agonist	Non-agonist	–	–
CCCCCC1CCC(=O)O1 (stereo not drawn) [5-Pentyloxolan-2-one]	Agonist	Non-agonist	–	–
CCCC1CCCC(=O)O1 (stereo not drawn) [6-Propyloxan-2-one]	Non-agonist	Non-agonist	–	–
COc1ccc2ccc(=O)oc2c1 [7-methoxycoumarin]	Non-agonist	Non-agonist	–	–
CC(C)CCCCCCCCCCC=O [12-methyltridecanal]	Non-agonist	Non-agonist	–	–
CC/C=C\CC/C=C/CO [(2E,6Z)-Nona-2,6-dien-1-ol]	Non-agonist	Non-agonist	–	–
CCCCC[C@H](C)O [(+)-2-heptanol]	Non-agonist	Non-agonist	–	–
CC12CCC(CC1=O)C2(C)C (stereo not drawn) [(+)-Camphor]	Non-agonist	Non-agonist	–	–
